Data: ChEMBL document CHEMBL4706643 (J Med Chem, 2021)

test system: Hepatitis B virus; test: Antiviral activity against HBV infected in human HepG2-NTCP cells assessed as reduction in HBeAg secretion cells inoculated with virus for 4 hrs at room temperature and 37 degree C for 24 hrs followed inoculum changed with PMM medium for every 2 days until day 5 post infection by ELISA; type: functional, organism-based

Structure (SMILES) | IC50 [nM]
CC[C@@H]1NC(=O)[C@H]([C@@H]2O[C@H](Sc3ccccc3)C[C@H]2C)N(C)C(=O)[C@H](C(C)C)N(C)C(=O)[C@H](CC(C)C)N(C)C(=O)[C@H](CC(C)C)N(C)C(=O)[C@@H](C)NC(=O)[C@H](C)NC(=O)[C@H](CC(C)C)N(C)C(=O)[C@H](C(C)C)NC(=O)[C@H](CC(C)C)N(C)C(=O)CN(C)C1=O | 5330
CC[C@@H]1NC(=O)[C@H]([C@@H]2O[C@@H](Sc3cc(OC)cc(OCc4ccc(F)cc4)c3)C[C@H]2C)N(C)C(=O)[C@H](C(C)C)N(C)C(=O)[C@H](CC(C)C)N(C)C(=O)[C@H](CC(C)C)N(C)C(=O)[C@@H](C)NC(=O)[C@H](C)NC(=O)[C@H](CC(C)C)N(C)C(=O)[C@H](C(C)C)NC(=O)[C@H](CC(C)C)N(C)C(=O)CN(C)C1=O | 216
CC[C@@H]1NC(=O)[C@H]([C@@H]2O[C@@H](Sc3cccc(OCc4cccnc4)c3)C[C@H]2C)N(C)C(=O)[C@H](C(C)C)N(C)C(=O)[C@H](CC(C)C)N(C)C(=O)[C@H](CC(C)C)N(C)C(=O)[C@@H](C)NC(=O)[C@H](C)NC(=O)[C@H](CC(C)C)N(C)C(=O)[C@H](C(C)C)NC(=O)[C@H](CC(C)C)N(C)C(=O)CN(C)C1=O | 269
CC[C@@H]1NC(=O)[C@H]([C@@H]2OC(OCCC(=O)OC)C[C@H]2C)N(C)C(=O)[C@H](C(C)C)N(C)C(=O)[C@H](CC(C)C)N(C)C(=O)[C@H](CC(C)C)N(C)C(=O)[C@@H](C)NC(=O)[C@H](C)NC(=O)[C@H](CC(C)C)N(C)C(=O)[C@H](C(C)C)NC(=O)[C@H](CC(C)C)N(C)C(=O)CN(C)C1=O (stereo not given in full) | 9260
CC[C@@H]1NC(=O)[C@H]([C@@H]2O[C@@H](Sc3cccc(OC)c3)C[C@H]2C)N(C)C(=O)[C@H](C(C)C)N(C)C(=O)[C@H](CC(C)C)N(C)C(=O)[C@H](CC(C)C)N(C)C(=O)[C@@H](C)NC(=O)[C@H](C)NC(=O)[C@H](CC(C)C)N(C)C(=O)[C@H](C(C)C)NC(=O)[C@H](CC(C)C)N(C)C(=O)CN(C)C1=O | 530
CC[C@@H]1NC(=O)[C@H]([C@@H]2OC(C(C)=O)C[C@H]2C)N(C)C(=O)[C@H](C(C)C)N(C)C(=O)[C@H](CC(C)C)N(C)C(=O)[C@H](CC(C)C)N(C)C(=O)[C@@H](C)NC(=O)[C@H](C)NC(=O)[C@H](CC(C)C)N(C)C(=O)[C@H](C(C)C)NC(=O)[C@H](CC(C)C)N(C)C(=O)CN(C)C1=O (stereo not given in full) | > 10000
CC[C@@H]1NC(=O)[C@H]([C@@H]2O[C@@H](Sc3cc(Cl)cc(OCc4ccc(F)cc4)c3)C[C@H]2C)N(C)C(=O)[C@H](C(C)C)N(C)C(=O)[C@H](CC(C)C)N(C)C(=O)[C@H](CC(C)C)N(C)C(=O)[C@@H](C)NC(=O)[C@H](C)NC(=O)[C@H](CC(C)C)N(C)C(=O)[C@H](C(C)C)NC(=O)[C@H](CC(C)C)N(C)C(=O)CN(C)C1=O | 417
CC[C@@H]1NC(=O)[C@H]([C@@H]2O[C@@H](Sc3ccc(C)cc3)C[C@H]2C)N(C)C(=O)[C@H](C(C)C)N(C)C(=O)[C@H](CC(C)C)N(C)C(=O)[C@H](CC(C)C)N(C)C(=O)[C@@H](C)NC(=O)[C@H](C)NC(=O)[C@H](CC(C)C)N(C)C(=O)[C@H](C(C)C)NC(=O)[C@H](CC(C)C)N(C)C(=O)CN(C)C1=O | 281
CC[C@@H]1NC(=O)[C@H]([C@@H]2OC(OCC(=O)OC)C[C@H]2C)N(C)C(=O)[C@H](C(C)C)N(C)C(=O)[C@H](CC(C)C)N(C)C(=O)[C@H](CC(C)C)N(C)C(=O)[C@@H](C)NC(=O)[C@H](C)NC(=O)[C@H](CC(C)C)N(C)C(=O)[C@H](C(C)C)NC(=O)[C@H](CC(C)C)N(C)C(=O)CN(C)C1=O (stereo not given in full) | > 10000
CC[C@@H]1NC(=O)[C@H]([C@@H]2OC(OCCC(=O)O)C[C@H]2C)N(C)C(=O)[C@H](C(C)C)N(C)C(=O)[C@H](CC(C)C)N(C)C(=O)[C@H](CC(C)C)N(C)C(=O)[C@@H](C)NC(=O)[C@H](C)NC(=O)[C@H](CC(C)C)N(C)C(=O)[C@H](C(C)C)NC(=O)[C@H](CC(C)C)N(C)C(=O)CN(C)C1=O (stereo not given in full) | > 10000
CC[C@@H]1NC(=O)[C@H]([C@@H]2O[C@@H](Sc3ccc(OCc4ccccc4)cc3)C[C@H]2C)N(C)C(=O)[C@H](C(C)C)N(C)C(=O)[C@H](CC(C)C)N(C)C(=O)[C@H](CC(C)C)N(C)C(=O)[C@@H](C)NC(=O)[C@H](C)NC(=O)[C@H](CC(C)C)N(C)C(=O)[C@H](C(C)C)NC(=O)[C@H](CC(C)C)N(C)C(=O)CN(C)C1=O | 256
CC[C@@H]1NC(=O)C([C@@H]2OC(O)C[C@H]2C)N(C)C(=O)[C@H](C(C)C)N(C)C(=O)[C@H](CC(C)C)N(C)C(=O)[C@H](CC(C)C)N(C)C(=O)[C@@H](C)NC(=O)[C@H](C)NC(=O)[C@H](CC(C)C)N(C)C(=O)[C@H](C(C)C)NC(=O)[C@H](CC(C)C)N(C)C(=O)CN(C)C1=O (stereo not given in full) | 11900
CC[C@@H]1NC(=O)[C@H]([C@@H]2OC(OC)C[C@H]2C)N(C)C(=O)[C@H](C(C)C)N(C)C(=O)[C@H](CC(C)C)N(C)C(=O)[C@H](CC(C)C)N(C)C(=O)[C@@H](C)NC(=O)[C@H](C)NC(=O)[C@H](CC(C)C)N(C)C(=O)[C@H](C(C)C)NC(=O)[C@H](CC(C)C)N(C)C(=O)CN(C)C1=O (stereo not given in full) | 13500
CC[C@@H]1NC(=O)[C@H]([C@@H]2O[C@@H](Oc3cc(OC)cc(OC)c3)C[C@H]2C)N(C)C(=O)[C@H](C(C)C)N(C)C(=O)[C@H](CC(C)C)N(C)C(=O)[C@H](CC(C)C)N(C)C(=O)[C@@H](C)NC(=O)[C@H](C)NC(=O)[C@H](CC(C)C)N(C)C(=O)[C@H](C(C)C)NC(=O)[C@H](CC(C)C)N(C)C(=O)CN(C)C1=O | 689
CC[C@@H]1NC(=O)[C@H]([C@@H]2O[C@@H](Sc3ccc(N4CCOCC4)cc3)C[C@H]2C)N(C)C(=O)[C@H](C(C)C)N(C)C(=O)[C@H](CC(C)C)N(C)C(=O)[C@H](CC(C)C)N(C)C(=O)[C@@H](C)NC(=O)[C@H](C)NC(=O)[C@H](CC(C)C)N(C)C(=O)[C@H](C(C)C)NC(=O)[C@H](CC(C)C)N(C)C(=O)CN(C)C1=O | 1270
CC[C@@H]1NC(=O)[C@H]([C@@H]2O[C@@H](Sc3ccc(CN4CCN(C)CC4)cc3)C[C@H]2C)N(C)C(=O)[C@H](C(C)C)N(C)C(=O)[C@H](CC(C)C)N(C)C(=O)[C@H](CC(C)C)N(C)C(=O)[C@@H](C)NC(=O)[C@H](C)NC(=O)[C@H](CC(C)C)N(C)C(=O)[C@H](C(C)C)NC(=O)[C@H](CC(C)C)N(C)C(=O)CN(C)C1=O | 1540
CC[C@@H]1NC(=O)[C@H]([C@@H]2O[C@@H](Sc3cccc(OCc4cccc(F)c4)c3)C[C@H]2C)N(C)C(=O)[C@H](C(C)C)N(C)C(=O)[C@H](CC(C)C)N(C)C(=O)[C@H](CC(C)C)N(C)C(=O)[C@@H](C)NC(=O)[C@H](C)NC(=O)[C@H](CC(C)C)N(C)C(=O)[C@H](C(C)C)NC(=O)[C@H](CC(C)C)N(C)C(=O)CN(C)C1=O | 197
CC[C@@H]1NC(=O)[C@H]([C@@H]2O[C@@H](Sc3ccc(OC)c(OC)c3)C[C@H]2C)N(C)C(=O)[C@H](C(C)C)N(C)C(=O)[C@H](CC(C)C)N(C)C(=O)[C@H](CC(C)C)N(C)C(=O)[C@@H](C)NC(=O)[C@H](C)NC(=O)[C@H](CC(C)C)N(C)C(=O)[C@H](C(C)C)NC(=O)[C@H](CC(C)C)N(C)C(=O)CN(C)C1=O | 346
CC[C@@H]1NC(=O)[C@H]([C@@H]2O[C@@H](Sc3cccc(NC)c3)C[C@H]2C)N(C)C(=O)[C@H](C(C)C)N(C)C(=O)[C@H](CC(C)C)N(C)C(=O)[C@H](CC(C)C)N(C)C(=O)[C@@H](C)NC(=O)[C@H](C)NC(=O)[C@H](CC(C)C)N(C)C(=O)[C@H](C(C)C)NC(=O)[C@H](CC(C)C)N(C)C(=O)CN(C)C1=O | 1200
CC[C@@H]1NC(=O)[C@H]([C@@H]2O[C@@H](Oc3cccc(OCc4ccccc4)c3)C[C@H]2C)N(C)C(=O)[C@H](C(C)C)N(C)C(=O)[C@H](CC(C)C)N(C)C(=O)[C@H](CC(C)C)N(C)C(=O)[C@@H](C)NC(=O)[C@H](C)NC(=O)[C@H](CC(C)C)N(C)C(=O)[C@H](C(C)C)NC(=O)[C@H](CC(C)C)N(C)C(=O)CN(C)C1=O | 344
CC[C@@H]1NC(=O)[C@H]([C@@H]2O[C@@H](Sc3cccc(OCc4ccccc4F)c3)C[C@H]2C)N(C)C(=O)[C@H](C(C)C)N(C)C(=O)[C@H](CC(C)C)N(C)C(=O)[C@H](CC(C)C)N(C)C(=O)[C@@H](C)NC(=O)[C@H](C)NC(=O)[C@H](CC(C)C)N(C)C(=O)[C@H](C(C)C)NC(=O)[C@H](CC(C)C)N(C)C(=O)CN(C)C1=O | 318
CC[C@@H]1NC(=O)[C@H]([C@@H]2O[C@@H](Sc3cccc(OCc4ccc(=O)n(C)c4)c3)C[C@H]2C)N(C)C(=O)[C@H](C(C)C)N(C)C(=O)[C@H](CC(C)C)N(C)C(=O)[C@H](CC(C)C)N(C)C(=O)[C@@H](C)NC(=O)[C@H](C)NC(=O)[C@H](CC(C)C)N(C)C(=O)[C@H](C(C)C)NC(=O)[C@H](CC(C)C)N(C)C(=O)CN(C)C1=O | 480
CC[C@@H]1NC(=O)[C@H]([C@@H]2O[C@@H](Sc3cccc(OCc4ccc(F)cc4Cl)c3)C[C@H]2C)N(C)C(=O)[C@H](C(C)C)N(C)C(=O)[C@H](CC(C)C)N(C)C(=O)[C@H](CC(C)C)N(C)C(=O)[C@@H](C)NC(=O)[C@H](C)NC(=O)[C@H](CC(C)C)N(C)C(=O)[C@H](C(C)C)NC(=O)[C@H](CC(C)C)N(C)C(=O)CN(C)C1=O | 403
CC[C@@H]1NC(=O)[C@H]([C@@H]2O[C@@H](Sc3cccc(OCc4ccc(F)c(Cl)c4)c3)C[C@H]2C)N(C)C(=O)[C@H](C(C)C)N(C)C(=O)[C@H](CC(C)C)N(C)C(=O)[C@H](CC(C)C)N(C)C(=O)[C@@H](C)NC(=O)[C@H](C)NC(=O)[C@H](CC(C)C)N(C)C(=O)[C@H](C(C)C)NC(=O)[C@H](CC(C)C)N(C)C(=O)CN(C)C1=O | 335
CC[C@@H]1NC(=O)[C@H]([C@@H]2OC(C(C)C)C[C@H]2C)N(C)C(=O)[C@H](C(C)C)N(C)C(=O)[C@H](CC(C)C)N(C)C(=O)[C@H](CC(C)C)N(C)C(=O)[C@@H](C)NC(=O)[C@H](C)NC(=O)[C@H](CC(C)C)N(C)C(=O)[C@H](C(C)C)NC(=O)[C@H](CC(C)C)N(C)C(=O)CN(C)C1=O (stereo not given in full) | > 10000
